According to patent US5681838A, “Substituted amino compounds, their preparation and their use as inhibitors of thrombocyte-aggregation” (Hoechst Aktiengesellschaft, priority 1993, dated 1997):
Where two headings read alike, the source gives them in different places.

Experiments:
[1] = biological target: T1, fibrinogen receptor (glycoprotein IIb/IIIa) (Homo sapiens, UniProt P05106+P08514); test: inhibition of binding of 125I-fibrinogen to its receptor on intact, gel-filtered human blood platelets; settings: following stimulation with ADP (10 μM); read-out: Ki, ADP-stimulated (inhibition of the binding of 125I-fibrinogen)
T1 construct: on intact, gel-filtered human blood platelets; from tissue; host or cells: gel-filtered blood platelets from human donor blood
Experimental: (§1) The compounds are tested, in particular, for their ability to inhibit blood-platelet aggregation and the adherence of fibrinogen to blood platelets (gel-filtered blood platelets from human donor blood are used which are activated with ADP or thrombin), as well as for their in-vivo ability to inhibit blood-platelet aggregation and thrombosis.
The test is of the ability of the compounds according to the invention to inhibit the binding of fibrinogen to its receptor (glycoprotein IIb/IIIa) on intact, gel-filtered human blood platelets. The value given is the Ki value for inhibition of the binding of ^125 I-fibrinogen following stimulation with ADP (10 μM). (Literature: J. S. Bennett and G. Vilaire, J. Clin. Invest. 64 (1979), 1393-1401; E. Kornecki et al., J. Biol. Chem. 256 (1981), 5695-5701; G. A. Marguerie et al., J. Biol. Chem. 254 (1979), 5357-5363; G. A. Marguerie et al., J. Biol. Chem. 255 (1980), 154-161).

[2] = test system: gel-filtered human blood platelets; test: inhibition of aggregation of gel-filtered human blood platelets following stimulation with ADP or thrombin; format: cell-based; settings: Platelet
Experimental: as §1
As a functional test, the ability is measured of the compounds according to the invention to inhibit the aggregation of gel-filtered human blood platelets following stimulation with ADP or thrombin. The value given is the IC50 value of the inhibition. (Literature: G. A. Marguerie et al., J. Biol. Chem. 254 (1979), 5357-5363).

[3] = read-out: ADP-stimulated IC50 (inhibition of platelet aggregation)
[4] = read-out: Thrombin-stimulated IC50 (inhibition of platelet aggregation)

T1 sequence (P08514 32-887 limits assumed): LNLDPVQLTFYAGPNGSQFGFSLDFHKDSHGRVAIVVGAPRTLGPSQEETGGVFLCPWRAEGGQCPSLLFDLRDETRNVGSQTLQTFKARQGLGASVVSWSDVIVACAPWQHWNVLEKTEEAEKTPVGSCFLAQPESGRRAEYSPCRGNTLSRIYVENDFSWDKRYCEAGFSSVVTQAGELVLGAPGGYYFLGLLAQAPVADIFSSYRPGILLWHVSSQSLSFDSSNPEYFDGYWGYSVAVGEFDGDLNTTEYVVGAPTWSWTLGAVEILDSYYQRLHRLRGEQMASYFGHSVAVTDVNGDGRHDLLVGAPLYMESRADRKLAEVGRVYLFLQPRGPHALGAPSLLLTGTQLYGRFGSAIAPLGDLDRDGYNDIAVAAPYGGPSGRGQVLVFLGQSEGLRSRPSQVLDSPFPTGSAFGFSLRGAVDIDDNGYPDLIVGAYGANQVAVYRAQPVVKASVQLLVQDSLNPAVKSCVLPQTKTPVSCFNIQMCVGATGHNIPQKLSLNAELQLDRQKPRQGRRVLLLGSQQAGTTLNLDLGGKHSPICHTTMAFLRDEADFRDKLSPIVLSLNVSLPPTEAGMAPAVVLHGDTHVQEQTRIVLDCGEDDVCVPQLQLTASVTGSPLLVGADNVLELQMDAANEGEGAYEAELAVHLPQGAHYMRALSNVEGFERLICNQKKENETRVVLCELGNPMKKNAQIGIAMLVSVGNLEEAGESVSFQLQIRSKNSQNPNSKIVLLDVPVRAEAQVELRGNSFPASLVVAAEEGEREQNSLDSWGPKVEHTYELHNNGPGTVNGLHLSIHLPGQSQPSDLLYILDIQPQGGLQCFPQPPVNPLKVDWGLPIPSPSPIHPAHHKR
T1 sequence (P08514 891-1039 limits assumed): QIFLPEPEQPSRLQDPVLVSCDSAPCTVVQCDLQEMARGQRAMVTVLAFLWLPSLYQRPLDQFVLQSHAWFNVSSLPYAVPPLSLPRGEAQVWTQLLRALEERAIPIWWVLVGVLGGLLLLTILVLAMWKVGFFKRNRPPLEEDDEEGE
T1 sequence (P05106 27-788): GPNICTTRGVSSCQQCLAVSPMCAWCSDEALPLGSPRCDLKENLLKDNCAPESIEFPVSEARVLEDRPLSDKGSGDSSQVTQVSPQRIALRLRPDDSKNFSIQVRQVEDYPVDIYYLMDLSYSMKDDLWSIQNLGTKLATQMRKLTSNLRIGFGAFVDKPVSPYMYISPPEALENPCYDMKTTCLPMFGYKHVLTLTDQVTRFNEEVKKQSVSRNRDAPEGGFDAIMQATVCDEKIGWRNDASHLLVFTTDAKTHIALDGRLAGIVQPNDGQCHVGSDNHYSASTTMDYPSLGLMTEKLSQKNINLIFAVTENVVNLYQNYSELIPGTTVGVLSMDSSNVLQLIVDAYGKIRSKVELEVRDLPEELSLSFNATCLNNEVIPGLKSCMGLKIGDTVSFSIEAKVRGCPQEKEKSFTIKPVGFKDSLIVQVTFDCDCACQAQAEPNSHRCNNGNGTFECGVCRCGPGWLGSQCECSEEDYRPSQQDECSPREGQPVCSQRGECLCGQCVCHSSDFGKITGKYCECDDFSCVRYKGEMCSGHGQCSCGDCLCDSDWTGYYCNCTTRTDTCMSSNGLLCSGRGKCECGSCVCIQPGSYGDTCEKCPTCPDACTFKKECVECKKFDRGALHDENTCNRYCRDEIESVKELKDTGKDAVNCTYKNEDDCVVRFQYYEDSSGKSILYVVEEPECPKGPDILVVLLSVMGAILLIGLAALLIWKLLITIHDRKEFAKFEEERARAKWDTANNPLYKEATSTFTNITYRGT

| Structure (SMILES) | Ki [1] | IC50 [2, 3] | IC50 [2, 4] |
| --- | --- | --- | --- |
| N=C(N)c1ccc(C=CC(=O)NCCCN(CC(=O)O)C(=O)NC(C(=O)O)c2ccccc2)cc1 (centres unmarked) [Example 1, (1-(3-(3-(4-(Aminoiminomethyl)phenyl)acryloylamino)propyl)-3-(hydroxycarbonylphenylmethyl)ureido)acetic acid acetate] | 0.42 µM | 1.5 µM | 1 µM |
| N=C(N)c1ccc(CC2NC(=O)N(CCN(CC(=O)O)C(=O)OCC3c4ccccc4-c4ccccc43)C2=O)cc1 (centres unmarked) [Example 2, (2-(4-(4-(Aminoiminomethyl)benzyl)-2,5-dioxoimidazolidin-1-yl)ethyl)-(9-fluorenylmethoxycarbonyl)aminoacetic acid] |  | 20 µM | 20 µM |
